± gives the expanded uncertainty stated by the source.
Conditions: 101.33 kPa, Liquid; for speed of sound: Pulse-echo method; for mass density: Vibrating tube method

CCCC(=O)[O-].C[NH2+]CCO [N-methyl-2-hydroxyethylammonium butanoate]
Conditions	mass density [kg/m3]	speed of sound [m/s]	viscosity [mPa·s]
322.91 K	1022.43 ± 2.2	1537 ± 2.1	–
323.15 K	–	–	71.53 ± 2.3
323.16 K	1022.26 ± 2.2	1536.2 ± 2.1	–
323.41 K	1022.08 ± 2.2	1535.4 ± 2.1	–
323.65 K	1021.91 ± 2.2	1534.7 ± 2.1	–
323.91 K	1021.74 ± 2.2	1533.9 ± 2.1	–
324.16 K	1021.56 ± 2.2	1533.1 ± 2.1	–
324.41 K	1021.39 ± 2.2	1532.3 ± 2.1	–
324.65 K	1021.22 ± 2.2	1531.5 ± 2.1	–
324.9 K	1021.04 ± 2.2	1530.8 ± 2.1	–
325.16 K	1020.87 ± 2.2	1530 ± 2.1	–
325.4 K	1020.69 ± 2.2	1529.2 ± 2.1	–
325.66 K	1020.52 ± 2.2	1528.4 ± 2.1	–
325.9 K	1020.35 ± 2.2	1527.7 ± 2.1	–
326.16 K	1020.17 ± 2.2	1526.9 ± 2.1	–
326.41 K	1019.99 ± 2.2	1526.1 ± 2.1	–
326.66 K	1019.82 ± 2.2	1525.3 ± 2.1	–
326.9 K	1019.65 ± 2.2	1524.5 ± 2.1	–
327.16 K	1019.47 ± 2.2	1523.7 ± 2.1	–
327.4 K	1019.29 ± 2.2	1522.9 ± 2.1	–
327.66 K	1019.12 ± 2.2	1522.2 ± 2.1	–
327.9 K	1018.95 ± 2.2	1521.4 ± 2.1	–
328.15 K	1018.77 ± 2.2	1520.6 ± 2.1	–
328.41 K	1018.6 ± 2.2	1519.8 ± 2.1	–
328.66 K	1018.42 ± 2.2	1519 ± 2.1	–
328.9 K	1018.25 ± 2.2	1518.2 ± 2.1	–
329.16 K	1018.07 ± 2.2	1517.4 ± 2.1	–
329.4 K	1017.9 ± 2.2	1516.6 ± 2.1	–
329.65 K	1017.72 ± 2.2	1515.9 ± 2.1	–
329.9 K	1017.54 ± 2.2	1515.1 ± 2.1	–
330.16 K	1017.37 ± 2.2	1514.3 ± 2.1	–
330.41 K	1017.19 ± 2.2	1513.5 ± 2.1	–
330.66 K	1017.01 ± 2.2	1512.7 ± 2.1	–
330.91 K	1016.84 ± 2.2	1511.9 ± 2.1	–
331.16 K	1016.66 ± 2.2	1511.1 ± 2.1	–
331.41 K	1016.48 ± 2.2	1510.3 ± 2.1	–
331.66 K	1016.3 ± 2.2	1509.6 ± 2.1	–
331.91 K	1016.13 ± 2.2	1508.8 ± 2.1	–
332.16 K	1015.96 ± 2.2	1508 ± 2.1	–
332.41 K	1015.78 ± 2.2	1507.2 ± 2.1	–
332.66 K	1015.6 ± 2.2	1506.4 ± 2.1	–
332.91 K	1015.43 ± 2.2	1505.6 ± 2.1	–
333.16 K	1015.25 ± 2.2	1504.9 ± 2.1	–
333.41 K	1015.07 ± 2.2	1504.1 ± 2.1	–
333.66 K	1014.89 ± 2.2	1503.3 ± 2.1	–
333.91 K	1014.72 ± 2.2	1502.5 ± 2.1	–
334.16 K	1014.54 ± 2.2	1501.7 ± 2.1	–
334.41 K	1014.36 ± 2.2	1500.9 ± 2.1	–
334.66 K	1014.18 ± 2.2	1500.2 ± 2.1	–
334.91 K	1014.01 ± 2.2	1499.4 ± 2.1	–
335.16 K	1013.83 ± 2.1	1498.6 ± 2.1	–
335.41 K	1013.65 ± 2.1	1497.8 ± 2.1	–
335.66 K	1013.47 ± 2.1	1497 ± 2.1	–
335.91 K	1013.3 ± 2.1	1496.2 ± 2.1	–
336.16 K	1013.12 ± 2.1	1495.4 ± 2.1	–
336.41 K	1012.94 ± 2.1	1494.7 ± 2.1	–
336.66 K	1012.76 ± 2.1	1493.9 ± 2.1	–
336.9 K	1012.58 ± 2.1	1493.1 ± 2.1	–
337.16 K	1012.4 ± 2.1	1492.3 ± 2.1	–
337.4 K	1012.22 ± 2.1	1491.5 ± 2.1	–
337.66 K	1012.04 ± 2.1	1490.8 ± 2.1	–
337.9 K	1011.86 ± 2.1	1490 ± 2.1	–
338.15 K	1011.69 ± 2.1	1489.3 ± 2.1	–
